Test results taken from patent publication US4434175A, “Nonsteroidal compounds as anti-inflammatory and analgesic agents” (Merck & Co., Inc., priority 1982, dated 1984).

Legend:
[1] = system: edema induced by carragenin in rat's right hind paw; experiment: rat foot edema assay (carragenin-induced, C.F.E.); type: in vivo, rat (male, Sprague Dawley)
Description: The rat foot edema assay, by which anti-inflammatory activity is determined, is based on the ability of the compounds of Formula I to inhibit the edema induced by injection of an inflammatory (phlogistic) agent into the tissue of a rat's foot. Groups of six male rats (Sprague Dawley strain, 150±30 g each) are given orally the compounds to be tested one hour before 0.1 ml of 1% suspension of carragenin in methocel (0.5%) is injected into the plantar surface of the rat's right hind paw. Immediately and again three hours later, the foot volume is measured and recorded. The difference between the […] and final volumes is a measurement of the edema produced. For comparative purposes the activity of the compound to be tested is measured against that produced by the known anti-inflammatory agent, e.g. Zomepirac. The activity measured is also corrected by the swelling, if any, produced by the "control" rats which receive only the methocel solution.

gastric mucosa = experiment: Gastric Hemorrhage Lesion Formation Assay (GHLF) / gastric irritation; type: in vivo, rat (Sprague-Dawley, male); details: for Ave. No. of lesions per Animal / Animal with Lesion: oral, fasted, 4 h; for Animal with Lesion: animals with at least one lesion/group
Description: In other words, the novel compounds of the present invention are less toxic in terms of gastric irritation. The GHLF test is conducted according to the following procedure:
Rats (Sprague-Dawley, Males, 120-180 gm) were fasted overnight and dosed orally with drug suspended in 0.5% methylcellulose. The drug concentration was adjusted so that each animal received 1.0 ml/100 gm body weight. Four hours later the animals were killed by asphixiation in carbon dioxide, the stomachs removed, cut open and everted. The mucosal lining was washed and examined under 3X magnification. The lesions are indentified as perforations of the gastric mucosa many of which perforate right through the wall of the stomach.
The results are expressed in two ways, the average number of lesions per stomach, and the number of animals in the group showing at least one lesion.

[2] = Rattus norvegicus, oral, one hour before carragenin, foot volume 3 h later

## COc1cc(CC(=O)O)n(C)c1C(=O)c1ccc(Cl)n1C
[1]; [2]
  inhibition in vivo at 3 mg/kg: 30%
  inhibition in vivo at 10 mg/kg: 35%
  inhibition in vivo at 30 mg/kg: 41%

## Cc1cc(CC(=O)O)n(C)c1C(=O)c1cccn1C
[1]; [2]
  inhibition in vivo at 30 mg/kg: 26%

## Cc1cc(CC(=O)O)n(C)c1C(=O)c1ccc(Cl)n1C
[1]; [2]
  inhibition in vivo at 10 mg/kg: 30%
  inhibition in vivo at 30 mg/kg: 41%

## CSc1cc(C(=O)c2c(C)cc(CC(=O)O)n2C)n(C)c1
[1]; [2]
  inhibition in vivo at 10 mg/kg: 33%
  inhibition in vivo at 30 mg/kg: 53%

## Cc1cc(CC(=O)O)n(C)c1C(=O)c1ccccn1
Gastric mucosa; 90 mg/kg
  Ave. No. of lesions per Animal: 0
  Animal with Lesion: 0/6

## COc1cc(CC(=O)O)n(C)c1C(=O)c1ccc(F)cc1F [2,4-F2C6 H5; OCH3; CH3, 5-(o-p-difluorobenzoyl)-4-methoxy-1-methylpyrrole-2-acetic acid]
[1]; [2]
  inhibition in vivo at 3 mg/kg: 29%
  inhibition in vivo at 10 mg/kg: 35%
  inhibition in vivo at 30 mg/kg: 38%

## COc1cc(CC(=O)O)n(C)c1C(=O)c1ccc(C(F)(F)F)cc1 [4-CF3C6 H5; OCH3; CH3, 5-(p-trifluoromethylbenzoyl)-4-methoxy-1-methylpyrrole-2-acetic acid]
[1]; [2]
  inhibition in vivo at 3 mg/kg: 24%
  inhibition in vivo at 10 mg/kg: 48%
  inhibition in vivo at 20 mg/kg: 57%
Gastric mucosa; 10 mg/kg
  Ave. No. of lesions per Animal: 0
  Animal with Lesion: 0/6
Gastric mucosa; 30 mg/kg
  Ave. No. of lesions per Animal: 0
  Animal with Lesion: 0/6
Gastric mucosa; 90 mg/kg
  Ave. No. of lesions per Animal: 0
  Animal with Lesion: 0/6
Gastric mucosa; 150 mg/kg
  Ave. No. of lesions per Animal: 1
  Animal with Lesion: 1/6

## COc1cc(CC(=O)O)n(C)c1C(=O)c1ccc(SC)cc1 [4-CH3 SC6 H5; CH3 O; CH3, 5-(p-methylthiobenzoyl)-4-methoxy-1-methylpyrrole-2-acetic acid]
[1]; [2]
  inhibition in vivo at 3 mg/kg: 45%
[1]; Rattus norvegicus, 15 mg/kg, oral, one hour before carragenin, foot volume 3 h later
  inhibition in vivo at 15 mg/kg: 64%
Gastric mucosa; 10 mg/kg
  Ave. No. of lesions per Animal: 0.5
  Animal with Lesion: 3/6
Gastric mucosa; 30 mg/kg
  Ave. No. of lesions per Animal: 0.8
  Animal with Lesion: 2/6

## COc1cc(CC(=O)O)n(C)c1C(=O)c1ccc([S+](C)[O-])cc1 (stereo not shown) [4-CH3 SOC6 H5; CH3 O; CH3, 4-methoxy-5-(p-methylsulfinylbenzoyl)-1-methylpyrrole-2-acetic acid]
[1]; [2]
  inhibition in vivo at 10 mg/kg: 29%
  inhibition in vivo at 30 mg/kg: 23%

## COc1cc(CC(=O)O)n(C)c1C(=O)c1ccc(C)cc1 [4-CH3C6 H5; OCH3; CH3, 5-(p-methylbenzoyl)-4-methoxy-1-methylpyrrole-2-acetic acid]
[1]; Rattus norvegicus, 5 mg/kg, oral, one hour before carragenin, foot volume 3 h later
  inhibition in vivo at 5 mg/kg: 38%
[1]; [2]
  inhibition in vivo at 20 mg/kg: 38%
Gastric mucosa; 10 mg/kg
  Ave. No. of lesions per Animal: 0
  Animal with Lesion: 0/6
Gastric mucosa; 30 mg/kg
  Ave. No. of lesions per Animal: 0
  Animal with Lesion: 0/6
Gastric mucosa; 90 mg/kg
  Ave. No. of lesions per Animal: 0
  Animal with Lesion: 0/6

## COc1cc(CC(=O)O)n(C)c1C(=O)c1ccc(Cl)cc1 [4-ClC6 H5; CH3 O; CH3, 5-(p-chlorobenzoyl)-4-methoxy-1-methylpyrrole-2-acetic acid]
[1]; [2]
  inhibition in vivo at 3 mg/kg: 48%
  inhibition in vivo at 10 mg/kg: 51%
  inhibition in vivo at 20 mg/kg: 60%
  inhibition in vivo at 30 mg/kg: 70%
Gastric mucosa; 10 mg/kg
  Ave. No. of lesions per Animal: 0
  Animal with Lesion: 0/5
Gastric mucosa; 30 mg/kg
  Ave. No. of lesions per Animal: 0
  Animal with Lesion: 0/5
Gastric mucosa; 90 mg/kg
  Ave. No. of lesions per Animal: 2
  Animal with Lesion: 3/5

## CCOc1cc(CC(=O)O)n(C)c1C(=O)c1ccc(Cl)cc1 [4-ClC6 H5; OC2 H5; CH3, 4-ethoxy-5-(p-chlorobenzoyl)-1-methylpyrrole-2-acetic acid]
[1]; [2]
  inhibition in vivo at 20 mg/kg: 33%

## C=C(Cl)COc1cc(CC(=O)O)n(C)c1C(=O)c1ccc(Cl)cc1 [4-ClC6 H5; drawing 13; CH3]
[1]; [2]
  inhibition in vivo at 3 mg/kg: 30%
  inhibition in vivo at 20 mg/kg: 32%

## CSc1ccc(C(=O)c2c(C)cc(CC(=O)OCCNC(C)=O)n2C)n1C [Acetamidoethyl 1,4-dimethyl-5-(1-methyl-5-methylthiopyrrol-2-oyl)pyrrole-2-acetate]
[1]; [2]
  inhibition in vivo at 10 mg/kg: 13%
  inhibition in vivo at 30 mg/kg: 21%
[1]; footnote to edema table
  activity in rat foot edema assay: also active
Gastric mucosa; 10 mg/kg
  Ave. No. of lesions per Animal: 0
  Animal with Lesion: 0/6
Gastric mucosa; 30 mg/kg
  Ave. No. of lesions per Animal: 0
  Animal with Lesion: 0/6
Gastric mucosa; 90 mg/kg
  Ave. No. of lesions per Animal: 0.5
  Animal with Lesion: 2/6
Gastric mucosa; footnote to GHLF table
  activity, footnote to GHLF table: also active

## Cc1cc(CC(=O)O)n(C)c1C(=O)c1ccc(Cl)cc1 [Zomepirac, reference compound]
Gastric mucosa; 3 mg/kg
  Ave. No. of lesions per Animal: 0.5
  Animal with Lesion: 4/6
Gastric mucosa; 6 mg/kg
  Ave. No. of lesions per Animal: 1.4
  Animal with Lesion: 3/6
Gastric mucosa; 9 mg/kg
  Ave. No. of lesions per Animal: 1.4
  Animal with Lesion: 6/6

## CSc1ccc(C(=O)c2c(C)cc(CC(=O)O)n2C)n1C [drawing 18]
[1]; [2]
  inhibition in vivo at 10 mg/kg: 34%
  inhibition in vivo at 30 mg/kg: 45%

## Cc1cc(CC(=O)O)n(C)c1C(=O)c1cccnc1 [drawing 19]
[1]; [2]
  inhibition in vivo at 3 mg/kg: 34%
  inhibition in vivo at 10 mg/kg: 47%
  inhibition in vivo at 30 mg/kg: 33%

## Cc1cc(CC(=O)O)n(C)c1C(=O)c1cccnc1 [drawing 23]
Gastric mucosa; 90 mg/kg
  Ave. No. of lesions per Animal: 0
  Animal with Lesion: 0/6

## CSc1ccc(C(=O)c2c(C)cc(CC(=O)O)n2C)n1C [drawing 24]
Gastric mucosa; 10 mg/kg
  Ave. No. of lesions per Animal: 0
  Animal with Lesion: 0/6
Gastric mucosa; 30 mg/kg
  Ave. No. of lesions per Animal: 0
  Animal with Lesion: 0/6
Gastric mucosa; 60 mg/kg
  Ave. No. of lesions per Animal: 1.5
  Animal with Lesion: 4/6
